How the values were obtained:
[1] = tested on: IPOHE: ivyleaf morningglory (Ipomoea hederecea); assay: Post-Emergent Test I herbicidal activity; assay type: in vivo; details: 4 Kg ai/ha
Protocol: (§1) Post-Emergent Test I: Seeds test species were obtained from commercial suppliers and planted into a 5″-round pot containing soil-less media mix (Metro-Mix 360®, Sun Gro Horticulture). Postemergence treatments were planted 8-12 days (d) prior to application and cultured in a greenhouse equipped with supplemental light sources to provide a 16 hour (h) photoperiod at 24-29° C. All pots were surface irrigated. Approximately 10 milligrams (mg) of each compound were dissolved in 1.3 mL acetone-DMSO (97:3, v/v) and diluted with 4.1 mL water-isopropanol-crop oil concentrate (78:20:2, v/v/v) containing 0.02% Triton X-155. Treatments were serial diluted with the above formulation solvent to provide 1.85, 0.926, 0.462 and 0.231 mg/mL of test compound delivered in 2.7 mL/pot (roughly equivalent to 4.0, 2.0, 1.0, and 0.5 kg/ha, respectively). Formulated compounds were applied using a DeVilbiss® compressed air sprayer at 2-4 pounds per square inch (psi). Following treatment, pots were returned to the greenhouse for the duration of the experiment. All pots were sub-irrigated as need to provide optimum growing conditions. All pots were fertilized one time per week by subirrigating with Peters Peat-Lite Special® fertilizer (20-10-20). Phytotoxicity ratings were obtained 10 days after treatment postemergence applications. All evaluations were made visually on a scale of 0 to 100 where 0 represents no activity and 100 represents complete plant death. Visual assessments of plant injury were made based on growth reduction, discoloration, leaf deformity and necrosis.

[2] = tested on: AVEFA: wild oats (Avena fatua); assay: Post-Emergent Test I herbicidal activity; assay type: in vivo; details: 4 Kg ai/ha
Protocol: as §1

[3] = tested on: HELAN: sunflower (Helianthus annuus); assay: Post-Emergent Test I herbicidal activity; assay type: in vivo; details: 4 Kg ai/ha
Protocol: as §1

[4] = tested on: ECHCG: barnyardgrass (Echinochloa crus-galli); assay: Post-Emergent Test I herbicidal activity; assay type: in vivo; details: 4 Kg ai/ha
Protocol: as §1

[5] = tested on: SETFA: giant foxtail (Setaria faberi); assay: Post-Emergent Test I herbicidal activity; assay type: in vivo; details: 4 Kg ai/ha
Protocol: as §1

SMILES | Visual Growth Reduction (%) 10 Days After Application IPOHE [1] | Visual Growth Reduction (%) 10 Days After Application AVEFA [2] | Visual Growth Reduction (%) 10 Days After Application HELAN [3] | Visual Growth Reduction (%) 10 Days After Application ECHCG [4] | Visual Growth Reduction (%) 10 Days After Application SETFA [5] | melting point
COC(=O)c1nc(-c2ccc3nonc3c2F)cc(N)c1Cl [Compound 6, Methyl 4-amino-3-chloro-6-(4-fluorobenzo[c][1,2,5]oxadiazol-5-yl)picolinate] | G (0-29) | G (0-29) | G (0-29) | G (0-29) | G (0-29) | –
Nc1cc(-c2cc3nonc3cc2F)nc(C(=O)O)c1Cl [Compound 7] | – | – | – | – | – | 177 to 178 °C

Reference: patent US9006250B2, “4-amino-6-(heterocyclic)picolinates and 6-amino-2-(heterocyclic)pyrimidine-4-carboxylates and their use as herbicides” (Dow AgroSciences, LLC, priority 2013, dated 2015)
